Measurements reported in PubChem BioAssay AID328 (DTP/NCI, 2004).
Several values for one entry are separate records, joined by “and”; a condition that tells them apart may be missing. Equal values may be shown once. Toxic doses and inconclusive results are not listed.

System: BDF1 mice, P388 leukemia ip, median survival T/C
Assay: NCI In Vivo Anticancer Drug Screen. Data for tumor model P388 Leukemia (intraperitoneal) in B6D2F1 (BDF1) mice
Settings: endpoint: median survival time, higher = longer survival
Method in brief: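 Survival ratio, drug arm over vehicle arm, in mice with a transplanted tumour.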

[1] = dose: 100.0 mg/kg/injection, schedule: Q04DX003 (ip), vehicle: saline with Tween-80
[2] = dose: 200.0 mg/kg/injection, schedule: Q04DX003 (ip), vehicle: saline with Tween-80
[3] = dose: 400.0 mg/kg/injection, schedule: Q04DX003 (ip), vehicle: saline with Tween-80
[4] = dose: 100.0 mg/kg/injection, schedule: Q04DX003 (ip), vehicle: Klucel (hydroxypropylcellulose) (HPC)
[5] = dose: 200.0 mg/kg/injection, schedule: Q04DX003 (ip), vehicle: Klucel (hydroxypropylcellulose) (HPC)
[6] = dose: 400.0 mg/kg/injection, schedule: Q04DX003 (ip), vehicle: Klucel (hydroxypropylcellulose) (HPC)
[7] = dose: 6.25 mg/kg/injection, schedule: Q01DX009 (ip), vehicle: saline with Tween-80
[8] = dose: 12.5 mg/kg/injection, schedule: Q01DX009 (ip), vehicle: saline with Tween-80
[9] = dose: 25.0 mg/kg/injection, schedule: Q01DX009 (ip), vehicle: saline with Tween-80
[10] = dose: 50.0 mg/kg/injection, schedule: Q04DX003 (ip), vehicle: saline with Tween-80
[11] = dose: 100.0 mg/kg/injection, schedule: Q01DX009 (ip), vehicle: saline with Tween-80
[12] = dose: 200.0 mg/kg/injection, schedule: Q01DX009 (ip), vehicle: saline with Tween-80
[13] = dose: 400.0 mg/kg/injection, schedule: Q01DX009 (ip), vehicle: saline with Tween-80
[14] = dose: 50.0 mg/kg/injection, schedule: Q01DX009 (ip), vehicle: saline with Tween-80

In the case of C1CCC2C[N-]CCC2C1.C1CCC2C[N-]CCC2C1.C1CCC2C[N-]CCC2C1.C1CCC2C[N-]CCC2C1.[Cl][Rh][Cl] (stereo not drawn), the T/C (dose: 0.13 mg/kg/injection, schedule: Q01DX009 (ip), vehicle: saline) is reported as 95 % of control, the T/C (dose: 0.25 mg/kg/injection, schedule: Q01DX009 (ip), vehicle: saline) is reported as 104 % of control and the T/C (dose: 0.39 mg/kg/injection, schedule: Q01DX009 (ip), vehicle: saline with Tween-80) is reported as 115 % of control. For the same compound, the T/C (dose: 0.5 mg/kg/injection, schedule: Q01DX009 (ip), vehicle: saline) was 119 % of control, the T/C (dose: 0.78 mg/kg/injection, schedule: Q01DX009 (ip), vehicle: saline with Tween-80) was 115 % of control and the T/C (dose: 0.88 mg/kg/injection, schedule: Q01DX009 (ip), vehicle: saline) was 153 % of control. The T/C (dose: 1.33 mg/kg/injection, schedule: Q01DX009 (ip), vehicle: saline) was 174 % of control, the T/C (dose: 1.56 mg/kg/injection, schedule: Q01DX009 (ip), vehicle: saline with Tween-80) was 150 % of control and the T/C (dose: 2.0 mg/kg/injection, schedule: Q01DX009 (ip), vehicle: saline) was 153 % of control. The T/C (dose: 2.66 mg/kg/injection, schedule: Q01DX009 (ip), vehicle: saline) was 159 % of control, the T/C (dose: 3.12 mg/kg/injection, schedule: Q01DX009 (ip), vehicle: saline with Tween-80) was 185 % of control and the T/C (dose: 4.0 mg/kg/injection, schedule: Q01DX009 (ip), vehicle: saline) was 168 % of control and 170 % of control. For the same compound, the T/C (dose: 6.0 mg/kg/injection, schedule: Q01DX009 (ip), vehicle: saline) was 100 % of control.
With Nc1nccc(NC(c2ccccc2)c2ccccc2)c1N the T/C (dose: 3.0 mg/kg/injection, schedule: Q01DX009 (ip), vehicle: DMSO) was 95 % of control, the T/C (dose: 6.0 mg/kg/injection, schedule: Q01DX009 (ip), vehicle: DMSO) was 100 % of control and the T/C (dose: 12.0 mg/kg/injection, schedule: Q01DX009 (ip), vehicle: DMSO) was 95 % of control. For the same compound, the T/C (dose: 12.5 mg/kg/injection, schedule: Q01DX009 (ip), vehicle: DMSO) was 103 % of control, the T/C (dose: 12.5 mg/kg/injection, schedule: Q04DX003 (ip), vehicle: DMSO) was 95 % of control and the T/C (dose: 25.0 mg/kg/injection, schedule: Q04DX003 (ip), vehicle: DMSO) was 100 % of control. The T/C (dose: 50.0 mg/kg/injection, schedule: Q04DX003 (ip), vehicle: DMSO) was 100 % of control.
In the case of NC(=O)n1cccn1, the T/C (dose: 30.0 mg/kg/injection, schedule: Q01DX010 (ip), vehicle: saline) is reported as 100 % of control, the T/C (dose: 50.0 mg/kg/injection, schedule: Q01DX010 (ip), vehicle: other) is reported as 104 % of control and the T/C (dose: 60.0 mg/kg/injection, schedule: Q01DX010 (ip), vehicle: saline) is reported as 100 % of control. The T/C (dose: 100.0 mg/kg/injection, schedule: Q01DX010 (ip), vehicle: other) was 100 % of control, the T/C (dose: 120.0 mg/kg/injection, schedule: Q01DX010 (ip), vehicle: saline) was 109 % of control and the T/C (dose: 240.0 mg/kg/injection, schedule: Q01DX010 (ip), vehicle: saline) was 122 % of control.
COC(C)(OC)C(N)=O was tested, and the T/C [1] was 100 % of control, the T/C [2] was 100 % of control and the T/C [3] was 104 % of control.
CC(c1ccccc1)C1N(c2ccccc2)CCN1c1ccccc1 (stereo not drawn) was tested, and the T/C (dose: 50.0 mg/kg/injection, schedule: Q04DX003 (ip), vehicle: Klucel (hydroxypropylcellulose) (HPC)) was 107 % of control, the T/C [4] was 96 % of control and the T/C [5] was 107 % of control. The T/C [6] was 111 % of control.
O=c1oc2ccccc2c(O)c1C(C/C(=N/O)c1ccccc1)c1ccccc1 (stereo not drawn) was tested, and the T/C [7] was 99 % of control, the T/C (dose: 6.25 mg/kg/injection, schedule: Q04DX003 (ip), vehicle: saline with Tween-80) was 100 % of control and 101 % of control and the T/C [8] was 94 % of control. For the same compound, the T/C (dose: 12.5 mg/kg/injection, schedule: Q04DX003 (ip), vehicle: saline with Tween-80) was 92 % of control and 107 % of control, the T/C [9] was 93 % of control and the T/C (dose: 25.0 mg/kg/injection, schedule: Q04DX003 (ip), vehicle: saline with Tween-80) was 105 % of control and 108 % of control. The T/C [10] was 95 % of control and 110 % of control and the T/C [1] was 102 % of control.
In the case of COc1ccc(/C=N/n2c(C)cc(C)c(C#N)c2=O)c(OC)c1OC, the T/C [11] is reported as 100 % of control, the T/C [4] is reported as 115 % of control and the T/C [12] is reported as 86 % of control. For the same compound, the T/C [5] was 100 % of control, the T/C [13] was 113 % of control and the T/C [6] was 100 % of control.
C[C@]12CC[C@H]3[C@@H](CC[C@]4(O)C[C@@H](O)CC[C@]34/C=N/O)[C@@]1(O)CC[C@@H]2C1=COC(=O)C1 was tested, and the T/C (dose: 1.87 mg/kg/injection, schedule: Q01DX010 (ip), vehicle: carboxymethylcellulose (CMC)) was 94 % of control, the T/C (dose: 3.75 mg/kg/injection, schedule: Q01DX010 (ip), vehicle: carboxymethylcellulose (CMC)) was 100 % of control and the T/C (dose: 7.5 mg/kg/injection, schedule: Q01DX010 (ip), vehicle: carboxymethylcellulose (CMC)) was 111 % of control. For the same compound, the T/C (dose: 15.0 mg/kg/injection, schedule: Q01DX010 (ip), vehicle: carboxymethylcellulose (CMC)) was 116 % of control, the T/C (dose: 30.0 mg/kg/injection, schedule: Q01DX010 (ip), vehicle: carboxymethylcellulose (CMC)) was 111 % of control and the T/C (dose: 60.0 mg/kg/injection, schedule: Q01DX010 (ip), vehicle: carboxymethylcellulose (CMC)) was 122 % of control.
O=c1c2ccccc2sc2c(CO)ccc(NCCN3CCCCC3)c12 was tested, and the T/C [10] was 101 % of control, the T/C [1] was 101 % of control and the T/C (dose: 176.0 mg/kg/injection, schedule: Q04DX003 (ip), vehicle: saline with Tween-80) was 115 % of control. The T/C [2] was 110 % of control, the T/C (dose: 264.0 mg/kg/injection, schedule: Q04DX003 (ip), vehicle: saline with Tween-80) was 123 % of control and the T/C (dose: 600.0 mg/kg/injection, schedule: Q04DX003 (ip), vehicle: saline with Tween-80) was 180 % of control.
In the case of CCOC(=O)C(Cc1ccc(N(CCCl)CCCl)cc1)NC(=O)C(NC(C)=O)C(C)C (stereo not drawn), the T/C (dose: 5.0 mg/kg/injection, schedule: Q04DX003 (ip), vehicle: water) is reported as 109 % of control, the T/C (dose: 10.0 mg/kg/injection, schedule: Q04DX003 (ip), vehicle: water) is reported as 157 % of control and the T/C (dose: 20.0 mg/kg/injection, schedule: Q04DX003 (ip), vehicle: water) is reported as 223 % of control. For the same compound, the T/C (dose: 40.0 mg/kg/injection, schedule: Q04DX003 (ip), vehicle: water) was 264 % of control and the T/C (dose: 80.0 mg/kg/injection, schedule: Q04DX003 (ip), vehicle: water) was 150 % of control.
In the case of COc1cc2c3c(c1)/C(=N\N)CCN3CCC2, the T/C [9] is reported as 110 % of control, the T/C [14] is reported as 110 % of control and the T/C [10] is reported as 113 % of control. The T/C [11] was 100 % of control, the T/C [1] was 95 % of control and the T/C [2] was 100 % of control.
With CCOC(=O)NCCc1ccc(OC)c(OC)c1 the T/C [9] was 109 % of control, the T/C [14] was 124 % of control and the T/C [11] was 89 % of control. For the same compound, the T/C [12] was 106 % of control and the T/C [13] was 107 % of control.
With Nc1nc(SCc2ccccc2Cl)c2ncn(C3OC(CO)C(O)C3O)c2n1 (stereo not drawn) the T/C (dose: 100.0 mg/kg/injection, schedule: Q01DX009 (ip), vehicle: saline) was 105 % of control, the T/C [4] was 100 % of control and the T/C (dose: 200.0 mg/kg/injection, schedule: Q01DX009 (ip), vehicle: saline) was 90 % of control. For the same compound, the T/C [5] was 118 % of control and the T/C [6] was 118 % of control.
CSc1nc(SC)c2[nH]cnc2n1 was tested, and the T/C (dose: 3.13 mg/kg/injection, schedule: Q01DX009 (ip), vehicle: saline with Tween-80) was 87 % of control, the T/C [7] was 99 % of control and the T/C [8] was 91 % of control. For the same compound, the T/C [9] was 94 % of control.
In the case of CCCCCCC(=O)CC(SCC)c1ccc(Cl)cc1Cl (stereo not drawn), the T/C [14] is reported as 98 % of control, the T/C [11] is reported as 104 % of control and the T/C [12] is reported as 104 % of control.
In the case of CC(C)(C)c1cccc(C(C)(C)C)c1OC(=O)NS(=O)(=O)c1ccccc1, the T/C (dose: 12.5 mg/kg/injection, schedule: Q04DX003 (ip), vehicle: saline) is reported as 111 % of control, the T/C (dose: 25.0 mg/kg/injection, schedule: Q04DX003 (ip), vehicle: saline) is reported as 105 % of control and the T/C (dose: 50.0 mg/kg/injection, schedule: Q04DX003 (ip), vehicle: saline) is reported as 100 % of control. The T/C (dose: 75.0 mg/kg/injection, schedule: Q04DX003 (ip), vehicle: Klucel (hydroxypropylcellulose) (HPC)) was 104 % of control and the T/C (dose: 115.0 mg/kg/injection, schedule: Q04DX003 (ip), vehicle: Klucel (hydroxypropylcellulose) (HPC)) was 104 % of control.
C=CCCCCn1c2ccccc2c2c(C)c3cnccc3c(C)c21 was tested, and the T/C [1] was 109 % of control, the T/C [2] was 100 % of control and the T/C [3] was 118 % of control.
CC(C)(O)c1ccccc1S(=O)c1ccc(Cl)cc1 (stereo not drawn) was tested, and the T/C [14] was 100 % of control, the T/C [11] was 101 % of control and the T/C [12] was 99 % of control.
